Measurements reported in ChEMBL document CHEMBL3886965, “Naphthylurea derivatives and medical applications thereof” (2016).

target: Platelet-derived growth factor receptor beta (Homo sapiens, UniProt P09619); assay: The rest of the stock solutions was storaged at ⿿20° C. after subpackage.
Sequence (P09619 whole entry): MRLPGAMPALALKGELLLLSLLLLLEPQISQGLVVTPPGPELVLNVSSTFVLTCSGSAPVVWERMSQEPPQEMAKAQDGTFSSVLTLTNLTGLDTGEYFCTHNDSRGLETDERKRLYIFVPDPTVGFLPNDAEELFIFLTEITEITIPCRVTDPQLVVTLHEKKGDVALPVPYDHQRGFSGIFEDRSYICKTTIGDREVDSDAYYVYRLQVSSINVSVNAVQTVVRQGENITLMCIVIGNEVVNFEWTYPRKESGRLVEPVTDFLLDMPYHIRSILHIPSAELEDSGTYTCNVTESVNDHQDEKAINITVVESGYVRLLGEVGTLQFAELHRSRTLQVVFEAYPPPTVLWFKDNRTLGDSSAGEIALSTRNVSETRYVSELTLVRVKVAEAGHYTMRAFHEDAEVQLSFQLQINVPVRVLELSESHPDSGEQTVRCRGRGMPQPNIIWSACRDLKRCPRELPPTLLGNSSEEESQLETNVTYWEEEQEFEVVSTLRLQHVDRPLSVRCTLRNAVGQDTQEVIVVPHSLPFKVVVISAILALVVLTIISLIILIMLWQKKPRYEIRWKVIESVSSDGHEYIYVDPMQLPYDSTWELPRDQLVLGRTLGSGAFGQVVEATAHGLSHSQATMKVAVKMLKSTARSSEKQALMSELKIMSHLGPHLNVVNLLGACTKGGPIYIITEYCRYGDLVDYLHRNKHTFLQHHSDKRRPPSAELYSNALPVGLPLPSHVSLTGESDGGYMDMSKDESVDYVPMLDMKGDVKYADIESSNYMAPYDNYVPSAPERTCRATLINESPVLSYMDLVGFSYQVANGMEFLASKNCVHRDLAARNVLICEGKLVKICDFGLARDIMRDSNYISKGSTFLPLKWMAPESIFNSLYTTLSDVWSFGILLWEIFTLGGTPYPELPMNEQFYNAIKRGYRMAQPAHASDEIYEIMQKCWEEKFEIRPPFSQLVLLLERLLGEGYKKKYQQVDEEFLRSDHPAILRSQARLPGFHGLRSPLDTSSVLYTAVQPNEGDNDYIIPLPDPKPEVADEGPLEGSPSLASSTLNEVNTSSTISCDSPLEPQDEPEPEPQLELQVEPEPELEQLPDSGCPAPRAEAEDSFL

Row | Compound | IC50 [nM]
1 | Cc1ccc(F)c(NC(=O)Nc2ccc(-c3ccc(OCCCN4CCCC4)c4[nH]nc(N)c34)c3ccccc23)c1 | 16.3
2 | Cc1cccc(NC(=O)Nc2ccc(-c3ccc(OCCCN4CCCC4)c4[nH]nc(N)c34)c3ccccc23)c1 | 45.4
3 | Cc1ccc(F)c(NC(=O)Nc2ccc(-c3ccc(OCCC(C)(C)N)c4[nH]nc(N)c34)c3ccccc23)c1 | 106
4 | Cc1cccc(NC(=O)Nc2ccc(-c3cncc4[nH]nc(N)c34)c3ccccc23)c1 | 6.7
5 | Cc1ccc(F)c(NC(=O)Nc2ccc(-c3cncc4[nH]nc(N)c34)c3ccccc23)c1 | 25.4
6 | Cc1cccc(NC(=O)Nc2ccc(-c3ccc(OCCC(C)(C)N)c4[nH]nc(N)c34)c3ccccc23)c1 | 155
